Results taken from patent publication US10550143B2, “C,O-spiro aryl glycoside compounds, preparation therefor and use thereof” (SHANGHAI INSTITUTE OF MATERIA MEDICA, CHINESE ACADEMY OF …, priority 2015, dated 2020).
Marks after values point to notes of the source that are not given here.

Legend:
db/db mice [1] = assay: Chronic administration, oral glucose tolerance in db/db mice; type: in vivo, mouse; conditions: glucose tolerance, chronic administration; for AUC0-2 h reduction rate (%): vs vehicle
Method: Oral gavage administrated, daily dose volume was 10 mL/kg, administered once daily. Administration time was 9: 00-10:00 daily, and the administration period was 5 weeks.
The glucose tolerance of mice of normal control group, model control group, test substance group and positive control group were determined 3 weeks after administration of drug, oral administrated with 1.5 g/kg of glucose, and taken 2 μL of blood on the tail. 4 μL of normal saline was added to 96 well sharp bottom plate to dilute evenly, and then the blood glucose was measured. The blood glucose levels before the sugar administration and at 15, 30, 60, 90 and 120 min after the sugar administration were measured. The true blood glucose level was calculated and the area under the blood glucose curve within 120 min was calculated by the following formula: AUC0-2h (mmol/L·h)=(BG0+BG15)×0.25/2+(BG15+BG30)×0.25/2+(BG30+BG60)×0.5/2+(BG60+[…])×1.0/2 Note: BG0, BG15, BG30, BG60 and BG120 represent the blood glucose levels before the sugar administration, and at 15, 30, 60, and 120 min after sugar administration, respectively. Average hypoglycemic rate %=(solvent control group AUC0-2h−administration group AUC0-2h)/solvent control group AUC0-2h*100%

C57BL/6J mice = assay: Acute administration of A28 at multiple doses, urinary glucose of C57BL/6J mice; type: in vivo, mouse; conditions: 24 h urine
Method: (1) 90 normal male C57BL/6J mice were selected and randomly divided into 9 groups according to body weight and blood glucose, 10 in each group. […] After oral gavage, the mice were placed in rats (mice) metabolic cages, […] and urine was collected after 24 h, and the urine volume was recorded, then preserved under −20° C. Rats take food and water freely during the experimental period.
(2) Index Determination: Glucose levels in urine are measured by the glucose assay kit.

db/db mice [2] = assay: Acute administration at multiple doses, random blood glucose in db/db mice; type: in vivo, mouse; conditions: for Blood glucose level 0 h: before administration
Method: (1) 127 db/db mice (half male and half female) entered the animal laboratory of the institute at 7 weeks of age and were grouped at 10 weeks of age. Random blood glucose and random body weight of all db/db mice were determined at 9:00 am, and then fasted for 6 hours (free drinking). Fasting blood glucose and fasting body weight were determined, and blood was collected (10 μl EDTA+20 μl tail blood, centrifugated to collect supernatant) to determine the insulin content. […] The db/db mice were once orally administered at a dose of 10 mL/kg. Blood glucose levels were measured before administration, and at 1 h, 2 h, 3 h, 4 h, 6 h after administration, and the administration times and body weights were recorded. Mice took food and water freely during the experiment.
Average hypoglycemic rate %=(model control group−administration group)/(model control group−blank control group)*100%

SD rats = assay: Acute administration of A28 at multiple doses, glucose tolerance of SD rats; type: in vivo, rat; conditions: SD rats OGTT; for Blood glucose level 0: before sugar
Method: (1) 80 SD rats were selected and starved overnight, took water freely, then randomly divided into 10 groups according to body weight and random blood glucose, 8 rats in each group. […] 1 h after oral gavage, 3 g/kg of glucose was orally administered to each group except blank control group, and the blood glucose level was monitored before the sugar administration, and at 15, 30, 60, 90 and 120 minutes after the sugar administration.
Average hypoglycemic rate %=(AUC0-120 min of solvent control group−AUC0-120 min of administration group)/(AUC0-120 min of solvent control group−AUC0-120 min of blank control group)*100%

`CCOc1ccc(Cc2cc([C@@H]3O[C@H](CO)[C@@H](O)[C@H](O)[C@H]3O)ccc2Cl)cc1` [Dapa] was tested, and the “Blood glucose AUC0-2 h” value (db/db mice [1]; dose 1 mg/kg) was 7.9 ± 1.7, the “Blood glucose (mmol/L) 0 min” value (db/db mice [1]; dose 1 mg/kg) was 10.0 ± 1.0 mmol/L and the “Blood glucose (mmol/L) 15 min” value (db/db mice [1]; dose 1 mg/kg) was 19.9 ± 1.0 mmol/L. The “Blood glucose (mmol/L) 30 min” value (db/db mice [1]; dose 1 mg/kg) was 20.3 ± 1.1 mmol/L, the “Blood glucose (mmol/L) 60 min” value (db/db mice [1]; dose 1 mg/kg) was 11.1 ± 0.5 mmol/L and the “Blood glucose (mmol/L) 90 min” value (db/db mice [1]; dose 1 mg/kg) was 10.8 ± 0.4* * mmol/L. The “Blood glucose (mmol/L) 120 min” value (db/db mice [1]; dose 1 mg/kg) was 11.8 ± 0.5* * mmol/L, the “AUC0-2 h reduction rate (%)” value (db/db mice [1]; dose 1 mg/kg) was 48.9% and the “Blood glucose AUC0-2 h” value (db/db mice [1]; dose 3 mg/kg) was 9.4 ± 1.7. For the same compound, the “Blood glucose (mmol/L) 0 min” value (db/db mice [1]; dose 3 mg/kg) was 8.6 ± 0.4 mmol/L, the “Blood glucose (mmol/L) 15 min” value (db/db mice [1]; dose 3 mg/kg) was 19.0 ± 1.2 mmol/L and the “Blood glucose (mmol/L) 30 min” value (db/db mice [1]; dose 3 mg/kg) was 20.2 ± 1.8 mmol/L. For the same compound, the “Blood glucose (mmol/L) 60 min” value (db/db mice [1]; dose 3 mg/kg) was 12.0 ± 1.4 mmol/L, the “Blood glucose (mmol/L) 90 min” value (db/db mice [1]; dose 3 mg/kg) was 9.9 ± 0.8 mmol/L and the “Blood glucose (mmol/L) 120 min” value (db/db mice [1]; dose 3 mg/kg) was 9.1 ± 0.6 mmol/L. For the same compound, the “AUC0-2 h reduction rate (%)” value (db/db mice [1]; dose 3 mg/kg) was 36.1%, the Total sugar excretion (C57BL/6J mice; oral 1 mg/kg) was 258.20 ± 81.71 mg/100 g and the Urine concentration (C57BL/6J mice; oral 1 mg/kg) was 142.82 ± 45.20 mmol/L. For the same compound, the Urine volume (C57BL/6J mice; oral 1 mg/kg) was 2.3 ± 0.7 mL, the Total sugar excretion (C57BL/6J mice; oral 3 mg/kg) was 315.49 ± 99.84 mg/100 g and the Urine concentration (C57BL/6J mice; oral 3 mg/kg) was 177.86 ± 56.29 mmol/L. For the same compound, the Urine volume (C57BL/6J mice; oral 3 mg/kg) was 2.3 ± 0.7 mL, the AUC0-6 h (db/db mice [2]; single oral 1 mg/kg) was 67.8 ± 2.5 mmol·h/L and the “Blood glucose level 1 h” value (db/db mice [2]; single oral 1 mg/kg) was 13.0 ± 0.7 mmol/L. The “Blood glucose level 2 h” value (db/db mice [2]; single oral 1 mg/kg) was 11.4 ± 0.6 mmol/L, the “Blood glucose level 3 h” value (db/db mice [2]; single oral 1 mg/kg) was 10.2 ± 0.6 mmol/L and the “Blood glucose level 4 h” value (db/db mice [2]; single oral 1 mg/kg) was 9.8 ± 0.7 mmol/L. For the same compound, the “Blood glucose level 6 h” value (db/db mice [2]; single oral 1 mg/kg) was 8.8 ± 0.6 mmol/L, the “Blood glucose level 0 h” value (db/db mice [2]; single oral 1 mg/kg) was 19.3 ± 1.3 mmol/L and the AUC0-6 h (db/db mice [2]; single oral 3 mg/kg) was 59.7 ± 1.7 mmol·h/L. For the same compound, the “Blood glucose level 1 h” value (db/db mice [2]; single oral 3 mg/kg) was 11.8 ± 0.5 mmol/L, the “Blood glucose level 2 h” value (db/db mice [2]; single oral 3 mg/kg) was 8.5 ± 0.4 mmol/L and the “Blood glucose level 3 h” value (db/db mice [2]; single oral 3 mg/kg) was 8.6 ± 0.5 mmol/L. The “Blood glucose level 4 h” value (db/db mice [2]; single oral 3 mg/kg) was 8.5 ± 0.3 mmol/L, the “Blood glucose level 6 h” value (db/db mice [2]; single oral 3 mg/kg) was 9.4 ± 0.7 mmol/L and the “Blood glucose level 0 h” value (db/db mice [2]; single oral 3 mg/kg) was 17.5 ± 1.3 mmol/L. The AUC0-2 h (SD rats; oral 1 mg/kg) was 16.6 ± 1.2 mmol·h/L, the “Average hypoglycemic rate % (0-2 h)” value (SD rats; oral 1 mg/kg) was 35.1% and the “Blood glucose level 15 min” value (SD rats; oral 1 mg/kg) was 6.6 ± 0.7 mmol/L. For the same compound, the “Blood glucose level 30 min” value (SD rats; oral 1 mg/kg) was 7.8 ± 0.9 mmol/L, the “Blood glucose level 60 min” value (SD rats; oral 1 mg/kg) was 9.4 ± 1.1 mmol/L and the “Blood glucose level 90 min” value (SD rats; oral 1 mg/kg) was 9.5 ± 1.0 mmol/L. The “Blood glucose level 120 min” value (SD rats; oral 1 mg/kg) was 7.9 ± 1.3 mmol/L, the “Blood glucose level 0” value (SD rats; oral 1 mg/kg) was 4.9 ± 0.4 mmol/L and the AUC0-2 h (SD rats; oral 3 mg/kg) was 14.9 ± 1.0 mmol·h/L. The “Average hypoglycemic rate % (0-2 h)” value (SD rats; oral 3 mg/kg) was 51.5%, the “Blood glucose level 15 min” value (SD rats; oral 3 mg/kg) was 4.7 ± 0.2 mmol/L and the “Blood glucose level 30 min” value (SD rats; oral 3 mg/kg) was 6.9 ± 1.0 mmol/L. The “Blood glucose level 60 min” value (SD rats; oral 3 mg/kg) was 8.6 ± 1.0 mmol/L, the “Blood glucose level 90 min” value (SD rats; oral 3 mg/kg) was 8.6 ± 1.3 mmol/L and the “Blood glucose level 120 min” value (SD rats; oral 3 mg/kg) was 8.3 ± 1.2 mmol/L. For the same compound, the “Blood glucose level 0” value (SD rats; oral 3 mg/kg) was 4.0 ± 0.6 mmol/L.
